One test concerns the target T1, glucagon receptor (GCGR) (Homo sapiens, UniProt P47871).
T1 construct: expressed in transfected cells; host or cells: CHO-K1 cells overexpressing GCGR (membrane fractions)
The experiment in a line: I125-glucagon binding assay (competition, GCGR membrane fractions). The method, boiled down: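 Competition of 0.0625 nM (final) I^125-glucagon for 30 min at 25° C, after 5 min compound preincubation, using 7.5 μg/well GCGR-overexpressing CHO-K1 membranes in 50 mM Tris pH 7.4, 0.5% BSA. Filtration onto PEI-coated GF/B, micro-beta counting, and non-linear regression gave IC50.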

Test [1] deals with T2, glucagon receptor (GCGR) overexpressed CHO-K1 cells or human primary hepatocytes (Homo sapiens, UniProt P47871).
T2 construct: expressed in transfected cells; host or cells: GCGR overexpressed CHO-K1 cells or human primary hepatocytes (endogenous receptor)
T2 sequence (P47871 26-477): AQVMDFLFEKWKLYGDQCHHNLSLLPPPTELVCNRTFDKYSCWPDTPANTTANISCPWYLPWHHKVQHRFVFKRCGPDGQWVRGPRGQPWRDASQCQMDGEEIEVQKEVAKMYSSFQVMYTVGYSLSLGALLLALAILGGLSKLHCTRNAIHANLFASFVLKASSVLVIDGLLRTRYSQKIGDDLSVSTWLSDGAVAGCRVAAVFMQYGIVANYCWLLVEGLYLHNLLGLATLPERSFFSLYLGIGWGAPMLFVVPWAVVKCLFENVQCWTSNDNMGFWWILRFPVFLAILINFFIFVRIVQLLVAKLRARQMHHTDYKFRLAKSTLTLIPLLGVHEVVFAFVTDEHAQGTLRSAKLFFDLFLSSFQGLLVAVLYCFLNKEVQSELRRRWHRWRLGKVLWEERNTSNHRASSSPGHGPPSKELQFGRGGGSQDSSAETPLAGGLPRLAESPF
As to the kind of experiment: Glucagon cAMP inhibition assay (Cisbio cAMP Dynamic 2 HTRF). It is filed as cell-based. An outline of the steps:
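HTRF read-out of glucagon-induced cAMP, with IC50 from non-linear regression. Cells (GCGR CHO-K1 or human primary hepatocytes) in HBSS/0.1% BSA/800 nM IBMX took compound dilutions for 30 min (final DMSO 1%), then EC50-level glucagon for 30 min at room temperature, then a 60 min lysis/detection step.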
A general note: TR-FRET usually uses a lanthanide donor and a delayed reading to cut background.

The mark [2] stands for this setting: competition with I125-glucagon 0.0625 nM, membrane fractions of GCGR overexpressed CHO-K1 cells.
[3] abbreviates: inhibition of glucagon (EC50 concentration) induced cAMP production.

Like-named read-outs stand apart in the source and are kept apart here.

T1 sequence (P47871 26-477): as above

By IC50 is commonly meant the midpoint of a concentration-inhibition curve. Read a low IC50 as inhibition by little substance. `CCCC[C@@H](COc1ccc(-c2ccc(C(F)(F)F)cc2Cl)cn1)Nc1ccc(C(=O)NCCC(=O)O)cc1` [Compound 15-25, (S)-3-(4-((1-((5-(2-chlor-4-(trifluoromethyl)phenyl)pyridin-2-yl)oxy)hexan-2-yl)amino)benzamido)propanoic Acid] returned an IC50 at glucagon receptor (GCGR) of 0.218 µM. Further, in test [1], the “IC50 cAMP” value was determined as 0.245 µM.

`CC[C@H](C)[C@@H](COc1ccc(-c2ccc(C(F)(F)F)cc2F)c(C)n1)Nc1ccc(C(=O)NCCC(=O)O)cc1` [Compound 18-6, 3-(4-(((2S,3S)-1-((5-(2-fluoro-4-(trifluoromethyl)phenyl)-6-methylpyridin-2-yl)oxy)-3-methylpentan-2-yl)amino)benzamido)propanoic Acid] displayed an IC50 on glucagon receptor (GCGR) of 0.179 µM. Also, in test [1], the “IC50 cAMP” value stood at 0.204 µM.

Compound `CC(C)COC[C@@H](Cc1ccc(-c2ccc(Cl)cc2Cl)cc1)Nc1ccc(C(=O)NCCC(=O)O)cc1` [Compound 19-20, (R)-3-(4-((1-(2′,4′-dichloro-[1,1′-biphenyl]-4-yl)-3-isobutoxypropan-2-yl)amino)benzamido)propanoic Acid] displayed an IC50 on glucagon receptor (GCGR) of 1.15 µM. Besides, the “IC50 cAMP” value in test [1] amounted to 0.8224 µM.

`CC(C)[C@@H](COc1cc(F)c(-c2ccc(C(F)(F)F)cc2Cl)c(F)c1)Nc1ccc(C(=O)NCCC(=O)O)cc1` [Compound 7-2, (S)-3-(4-((1-((2′-chloro-2,6-difluoro-4′-(trifluoromethyl)-[1,1′-biphenyl]-4-yl)oxy)-3-methylbutan-2-yl)amino)benzamido)propanoic Acid] yielded an IC50 at glucagon receptor (GCGR) (setting [2]) of 0.177 µM. Besides, the “IC50 cAMP” value in test [1] (setting [3]) is 0.201 µM.

Consider `COc1cc(OC[C@@H](Nc2ccc(C(=O)NCCC(=O)O)cn2)C(C)C)ccc1-c1cc2ccccc2o1` [Compound 14-1, (S)-3-(6-((1-(4-(benzofuran-2-yl)-3-methoxyphenoxy)-3-methylbutan-2-yl)amino)nicotinamido)propanoic Acid], for which, on glucagon receptor (GCGR) (setting [2]), the IC50 was found to be 0.75 µM. For the same compound, the “IC50 cAMP” value in test [1] (setting [3]) was determined as 1.232 µM.

In the case of `CCOC(=O)CCNC(=O)c1ccc(N[C@H](Cc2ccc(-c3ccc(Cl)cc3Cl)cc2)C(=O)Nc2ccc(C(F)(F)F)cc2)cc1` [Compound 24-17, Ethyl (R)-3-(4-((3-(2′,4′-dichloro-[1,1′-biphenyl]-4-yl)-1-oxo-1-((4-(trifluoromethyl)phenyl)amino)propan-2-yl)amino)benzamido)propanoate], the IC50 at glucagon receptor (GCGR) (uM) is > 30 µM. The “IC50 cAMP” value in test [1] was 0.1671 µM.

Turning to `CC(C)(C)c1ccc(-c2nnc([C@H](Cc3ccc(-c4cc5ccccc5o4)cc3)Nc3ccc(C(=O)NCCC(=O)O)cc3)o2)cc1` [Compound 20-1, (S)-3-(4-((2-(4-(benzofuran-2-yl)phenyl)-1-(5-(4-(tert-butyl)phenyl)-1,3,4-oxadiazol-2-yl)ethyl)amino)benzamido)propanoic Acid], at glucagon receptor (GCGR), the IC50 was 0.201 µM. Further, the “IC50 cAMP” value in test [1] was determined as 1.403 µM.

In turn, `CCC(C)[C@@H](Cc1noc(-c2ccc(C(C)(C)C)cc2)n1)Nc1ccc(C(=O)NCCC(=O)O)cc1` (stereo partly drawn) [Compound 21-2, 3-(4-(((2R)-1-(5-(4-(tert-butyl)phenyl)-1,2,4-oxadiazol-3-yl)-3-methylpentan-2-yl)amino)benzamido)propanoic Acid] yielded a half-maximal inhibitory concentration (IC50) at glucagon receptor (GCGR) (setting [2]) of 0.637 µM. The “IC50 cAMP” value in test [1] (setting [3]) is 1.242 µM.

In turn, `CC(C)[C@@H](Cc1noc(-c2ccc(C(C)(C)C)cc2)n1)Nc1ccc(C(=O)NCCC(=O)O)cc1` [Compound 21-3, (R)-3-(4-((1-(5-(4-(tert-butyl)phenyl)-1,2,4-oxadiazol-3-yl)-3-methylbutan-2-yl)amino)benzamido)propanoic Acid] came in with an IC50 at glucagon receptor (GCGR) (setting [2]) of 1.13 µM. Besides, in test [1] (setting [3]), the “IC50 cAMP” value worked out at 5.436 µM.

The compound `CC(C)C[C@@H](COc1cnc(-c2ccc(C(F)(F)F)cc2Cl)nc1)Nc1ccc(C(=O)NCCC(=O)O)cc1` [Compound 12-9, (S)-3-(4-((1-((2-(2-chloro-4-(trifluoromethyl)phenyl)pyrimidin-5-yl)oxy)-4-methylpentan-2-yl)amino)benzamido)propanoic Acid] registered an IC50 at glucagon receptor (GCGR) (setting [2]) of 0.501 µM. The “IC50 cAMP” value in test [1] (setting [3]) amounted to 19.185 µM.

On to `CC(C)[C@@H](COc1ccc(-c2ccc(N(C)C)cc2Cl)cc1)Nc1ccc(C(=O)NCCC(=O)O)cc1` [Compound 1-37, (S)-3-(4-((1-((2′-chloro-4′-(dimethylamino)-[1,1′-biphenyl]-4-yl)oxy)-3-methylbutan-2-yl)amino)benzamido)propanoic Acid], for which the IC50 at glucagon receptor (GCGR) (setting [2]) came out at 0.372 µM. For the same compound, the “IC50 cAMP” value in test [1] (setting [3]) is 0.376 µM.

For `CCCC[C@@H](Cc1ccc(-c2cc3ccccc3o2)cc1)Nc1ccc(C(=O)NCCC(=O)O)cc1` [Compound 19-11, (S)-3-(4-((1-(4-(benzofuran-2-yl)phenyl)hexan-2-yl)amino)benzamido)propanoic Acid], on glucagon receptor (GCGR), the IC50 came out at 0.283 µM. Also, the “IC50 cAMP” value in test [1] was determined as 0.2599 µM.

`CCCOC[C@H](Cc1ccc(-c2cc3ccccc3[nH]2)cc1)Nc1ccc(C(=O)NCCC(=O)O)cc1` [Compound 19-27, (S)-3-(4-((1-(4-(1H-indol-2-yl)phenyl)-3-propoxypropan-2-yl)amino)benzamido)propanoic Acid] yielded an IC50 at glucagon receptor (GCGR) of 0.455 µM. Further, the “IC50 cAMP” value in test [1] was 4.952 µM.

On to `CC(C)[C@@H](COc1ccc(-c2nc3ccccc3s2)cn1)Nc1ccc(C(=O)NCCC(=O)O)cc1` [Compound 15-37, (S)-3-(4-((1-((5-(benzo[d]thiazol-2-yl)pyridin-2-yl)oxy)-3-methylbutan-2-yl)amino)benzamido)propanoic Acid], for which, at glucagon receptor (GCGR), the IC50 stood at 0.468 µM. For the same compound, in test [1], the “IC50 cAMP” value is 1.609 µM.

In turn, `CC(C)C[C@@H](COc1cc(F)c(-c2cc3ccccc3o2)c(F)c1)Nc1ccc(C(=O)NCCC(=O)O)cc1` [Compound 7-10, (S)-3-(4-((1-(4-(benzofuran-2-yl)-3,5-difluorophenoxy)-4-methylpentan-2-yl)amino)benzamido)propanoic Acid] showed an IC50 at glucagon receptor (GCGR) (setting [2]) of 0.145 µM. Further, in test [1] (setting [3]), the “IC50 cAMP” value was found to be 0.7309 µM.

Take `CCCC[C@@H](COc1nnc(-c2ccc(C(C)(C)C)cc2)o1)Nc1ccc(C(=O)NCCC(=O)O)cc1` [Compound 22-18, (S)-3-(4-((1-((5-(4-(tert-butyl)phenyl)-1,3,4-oxadiazol-2-yl)oxy)hexan-2-yl)amino)benzamido)propanoic Acid]: on glucagon receptor (GCGR), the IC50 is > 30 µM. Further, the “IC50 cAMP” value in test [1] is >30 µM.

In turn, `CC(C)C[C@H](Nc1ccc(C(=O)NCCC(=O)O)cc1)C(=O)Nc1ccc(-c2cc3ccccc3[nH]2)cc1` [Compound 23-29, (S)-3-(4-((1-((4-(1H-indol-2-yl)phenyl)amino)-4-methyl-1-oxopentan-2-yl)amino)benzamido)propanoic Acid] came in with an IC50 on glucagon receptor (GCGR) of 0.141 µM. For the same compound, the “IC50 cAMP” value in test [1] (uM) was >10 µM.

`CC(C)[C@@H](COc1ccc(-c2ccc(C(F)(F)F)nn2)cc1)Nc1ccc(C(=O)NCCC(=O)O)cc1` [Compound 1-29, (S)-3-(4-((3-methyl-1-(4-(6-(trifluoromethyl)pyridazin-3-yl)phenoxy)butan-2-yl)amino)benzamido)propanoic Acid] came in with an IC50 on glucagon receptor (GCGR) (setting [2]) of 2.79 µM. For the same compound, the “IC50 cAMP” value in test [1] (setting [3]) was >30 µM.

As for `CC(C)[C@H](Nc1ccc(C(=O)NCCS(=O)(=O)O)cc1)C(=O)Nc1ccc(-c2cc3ccccc3o2)cc1` [Compound 23-34, (S)-2-(4-((1-((4-(benzofuran-2-yl)phenyl)amino)-3-methyl-1-oxobutan-2-yl)amino)benzamido)ethane-1-sulfonic Acid], the IC50 on glucagon receptor (GCGR) is 2.57 µM. Besides, in test [1], the “IC50 cAMP” value is 75.611 µM.

On glucagon receptor (GCGR) (setting [2]), `CC(C)C[C@@H](COc1ccc(-c2ccc(C(F)(F)F)cc2Cl)nc1)Nc1ccc(C(=O)NCCC(=O)O)cc1` [Compound 10-18, (S)-3-(4-((1-((6-(2-chloro-4-(trifluoromethyl)phenyl)pyridin-3-yl)oxy)-4-methylpentan-2-yl)amino)benzamido)propanoic Acid] returned an IC50 of 0.234 µM. For the same compound, the “IC50 cAMP” value in test [1] (setting [3]) is 0.88 µM.

Turning to `CC(C)[C@@H](COc1ccc(-c2nc3ccccc3s2)c(F)c1)Nc1ccc(C(=O)NCCC(=O)O)cc1` [Compound 8-25, (S)-3-(4-((1-(4-(benzo[d]thiazol-2-yl)-3-fluorophenoxy)-3-methylbutan-2-yl)amino)benzamido)propanoic Acid], on glucagon receptor (GCGR) (setting [2]), the IC50 came out at 0.095 µM. Also, in test [1] (setting [3]), the “IC50 cAMP” value worked out at 0.653 µM.

In turn, `CCCC[C@@H](COc1ccc(-c2cc3ccccc3o2)cn1)Nc1ccc(C(=O)NCCS(=O)(=O)O)cc1` [Compound 15-23, (S)-2-(4-((1-((5-(benzofuran-2-yl)pyridin-2-yl)oxy)hexan-2-yl)amino)benzamido) ethane-1-sulfonic Acid] displayed an IC50 at glucagon receptor (GCGR) of 0.453 µM. The “IC50 cAMP” value in test [1] was >30 µM.

`CC(C)[C@@H](COc1ccc(-c2ccc(F)cc2)nn1)Nc1ccc(C(=O)NCCC(=O)O)cc1` [Compound 17-10, (S)-3-(4-((1-((6-(4-fluorophenyl)pyridazin-3-yl)oxy)-3-methylbutan-2-yl)amino)benzamido)propanoic Acid] came in with an IC50 on glucagon receptor (GCGR) (setting [2]) of 2.3 µM. In test [1] (setting [3]), the “IC50 cAMP” value is >30 µM.

As for `CC(C)[C@@H](COc1ccc(-c2ccc(C(F)(F)F)cn2)cc1)Nc1ccc(C(=O)NCCC(=O)O)cc1` [Compound 1-24, (S)-3-(4-((3-methyl-1-(4-(5-(trifluoromethyl)pyridin-2-yl)phenoxy)butan-2-yl)amino)benzamido)propanoic Acid], the IC50 at glucagon receptor (GCGR) (setting [2]) was 0.134 µM. Further, in test [1] (setting [3]), the “IC50 cAMP” value was determined as 0.1875 µM.

Values taken from patent US11384060B2, “Amide compounds and use thereof” (ALPHALA CO., LTD., priority 2017, dated 2022).
